We go through three compounds from ChEMBL document CHEMBL1154799, “Asymmetrically substituted cationic indole- and fluorene porphyrins inhibit tumor proliferation in small intestinal neuroendocrine tumors and medullary thyroid carcinomas” (Eur J Med Chem, 2010).

For data set [1], the system named is Nucleic Acid. Kind of data set: Binding affinity to calf thymus DNA assessed as change in melting temperature. The format is nucleic-acid assay. Conditions: Bos taurus.
Data set [2] deals with Nucleic Acid. Kind of data set: Binding affinity to oligonucleotide d(CGTACG)2 by DNA intercalation assay. The format is nucleic-acid assay.
The subject of data set [3] is KRJ-I. Kind of data set: Antiproliferative activity against human KRJ-I cells at 10 uM after 72 hrs by WST-1 assay. The format is functional, cell-based. Background: Tetrazolium assays rely on reduction of a dye to a coloured formazan, in cell work by metabolically active cells.
Data set [4] relates to MTC-SK. Kind of data set: Antiproliferative activity against human MTC-SK cells at 10 uM after 72 hrs by WST-1 assay. The format is functional, cell-based.
Data set [5] is described as follows: (§1) Cytotoxicity against human KRJ-I cells assessed as decrease in cell viability at 10 uM after 72 hrs by WST-1 assay. The format is functional.
Data set [6] relates to KRJ-I. The description is as §1. The format is functional.
Data set [7] can be described thus: (§2) Cytotoxicity against human MTC-SK cells assessed as decrease in cell viability at 10 uM after 72 hrs by WST-1 assay. The format is functional.
The test system of data set [8] is MTC-SK. Described as §2. The format is functional.
Data set [9] can be described thus: (§3) Antiproliferative activity against human KRJ-I cells after 72 hrs by WST-1 assay. The format is functional, cell-based.
Data set [10] has as its system KRJ-I. The data set is described as §3. The format is functional, cell-based.
Data set [11] can be described thus: (§4) Antiproliferative activity against human MTC-SK cells after 72 hrs by WST-1 assay. The format is functional, cell-based.
The subject of data set [12] is MTC-SK. Described as §4. The format is functional, cell-based.
Data set [13] in a line: (§5) Cytotoxicity against human KRJ-I cells assessed as decrease in cell viability after 72 hrs by WST-1 assay. The format is functional, cell-based.
Data set [14] deals with KRJ-I. The description is as §5. The format is functional, cell-based.
A short description of data set [15]: (§6) Cytotoxicity against human MTC-SK cells assessed as decrease in cell viability after 72 hrs by WST-1 assay. The format is functional, cell-based.
Data set [16] concerns MTC-SK. The data set is described as §6. The format is functional, cell-based.
The nature of data set [17]: Antiproliferative activity against human HF-SAR cells at 10 uM after 72 hrs by WST-1 assay. The format is cell-based.
Data set [18] is described as follows: Cytotoxicity against human HF-SAR cells assessed as decrease in cell viability at 10 uM after 72 hrs by WST-1 assay. The format is cell-based.
For data set [19], the system named is KRJ-I. The data set can be described thus: Cytotoxicity against human KRJ-I cells assessed as induction of protease activity at 10 uM after 72 hrs by luminescence based assay. The format is functional, cell-based.
The nature of data set [20]: Cytotoxicity against human MTC-SK cells assessed as induction of protease activity at 10 uM after 72 hrs by luminescence based assay. The format is functional.

Calls of active or inactive are those of the source. The calls are words filed in the database; no cut-off is given here.

One may read the IC50 as the concentration needed to halve the response being measured.

As to `C[n+]1ccc(-c2c3nc(c(-c4cc(-c5ccc6c(c5)C(C)(C)c5ccccc5-6)c[n+](C)c4)c4ccc([nH]4)c(-c4cc[n+](C)cc4)c4nc(c(-c5cc(-c6ccc7c(c6)C(C)(C)c6ccccc6-7)c[n+](C)c5)c5ccc2[nH]5)C=C4)C=C3)cc1.[Cl-].[Cl-].[Cl-].[Cl-]`, the result in the data set on Nucleic Acid [1], in the data set on Nucleic Acid [2], with KRJ-I [3], with MTC-SK [4], in the data set on KRJ-I [6] and with MTC-SK [8] was Active. Moreover, the Activity in data set [5] was 95%; in data set [7], 91%; with KRJ-I [10], “Dose-dependent effect”; in the data set on MTC-SK [12], “Dose-dependent effect”; in the data set on KRJ-I [14], “Dose-dependent effect”; with MTC-SK [16], “Dose-dependent effect”. Besides, the results for the Activity result in data set [17], in data set [18] and in [20] were “Active”, “Not Active” and 46%, respectively. The half-inhibitory concentration (IC50) in data set [9], in [11], in data set [13] and in data set [15] was 22.7 µM each time. Moreover, in the data set on KRJ-I [19], the outcome was inactive.
Turning to `C[n+]1ccc(-c2c3nc(c(-c4cc[n+](C)cc4)c4ccc([nH]4)c(-c4cc[n+](C)cc4)c4nc(c(-c5ccc(-c6cn(S(=O)(=O)c7ccccc7)c7ccccc67)cc5)c5ccc2[nH]5)C=C4)C=C3)cc1.[Cl-].[Cl-].[Cl-]`, the outcome in the data set with Nucleic Acid [1], with KRJ-I [3], with MTC-SK [4], with KRJ-I [6] and with MTC-SK [8] was Active. In addition, the Activity is 37% in data set [5]; 74% in data set [7]; “Dose-dependent effect” in the data set on KRJ-I [10]; “Dose-dependent effect” with MTC-SK [12]; “Dose-dependent effect” with KRJ-I [14]; “Dose-dependent effect” in the data set on MTC-SK [16]. Moreover, the Activity entry is listed as “Active” in data set [17], “Not Active” in [18] and 64% in [20]. Also, the 50% inhibitory concentration (IC50) in data set [9], in [11], in data set [13] and in [15] was 10 µM in each case. The result in the data set with KRJ-I [19] was inactive.
In the case of `C[n+]1ccc(-c2c3nc(c(-c4cc[n+](C)cc4)c4ccc([nH]4)c(-c4cc(-c5ccc6c(c5)C(C)(C)c5ccccc5-6)c[n+](C)c4)c4nc(c(-c5cc[n+](C)cc5)c5ccc2[nH]5)C=C4)C=C3)cc1`, the result with Nucleic Acid [2] was Active.
